# Assay: Anticancer human tumor 997537-175-T-J1-PDC patient-derived colon adenocarcinoma cell line growth inhibition [POLQ]
# Details: 997537-175-T-J1-PDC complex spheroid viability, combination with POLQ inhibitors; for IC50: curve of first compound; for viability, T/C: stronger effect = lower value
# Method in brief: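 Growth inhibition in 3D: complex spheroids (tumor PDC, HUVEC, MSC) treated with POLQ inhibitor combinations; where Cmax unknown, highest tested concentration 10 microM, except SN-38 at 1 microM.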
# [1] = second compound 0.0316 µM, first compound 0.0316 µM
# [2] = second compound 0.0316 µM, first compound 0.1 µM
# [3] = second compound 0.0316 µM, first compound 0.316 µM
# [4] = second compound 0.0316 µM, first compound 1 µM
# [5] = second compound 0.0316 µM, first compound 3.16 µM
# [6] = second compound 0.0316 µM, first compound 10 µM
# [7] = second compound 0.1 µM, first compound 0.0316 µM
# [8] = second compound 0.1 µM, first compound 0.1 µM
# [9] = second compound 0.1 µM, first compound 0.316 µM
# [10] = second compound 0.1 µM, first compound 1 µM
# [11] = second compound 0.1 µM, first compound 3.16 µM
# [12] = second compound 0.1 µM, first compound 10 µM
# [13] = second compound 0.316 µM, first compound 0.0316 µM
# [14] = second compound 0.316 µM, first compound 0.1 µM
# [15] = second compound 0.316 µM, first compound 0.316 µM
# [16] = second compound 0.316 µM, first compound 1 µM
# [17] = second compound 0.316 µM, first compound 3.16 µM
# [18] = second compound 0.316 µM, first compound 10 µM
# [19] = second compound 1 µM, first compound 0.0316 µM
# [20] = second compound 1 µM, first compound 0.1 µM
# [21] = second compound 1 µM, first compound 0.316 µM
# [22] = second compound 1 µM, first compound 1 µM
# [23] = second compound 1 µM, first compound 3.16 µM
# [24] = second compound 1 µM, first compound 10 µM
# [25] = second compound 3.16 µM, first compound 0.0316 µM
# [26] = second compound 3.16 µM, first compound 0.1 µM
# [27] = second compound 3.16 µM, first compound 0.316 µM
# [28] = second compound 3.16 µM, first compound 1 µM
# [29] = second compound 3.16 µM, first compound 3.16 µM
# [30] = second compound 3.16 µM, first compound 10 µM
# [31] = second compound 10 µM, first compound 0.0316 µM
# [32] = second compound 10 µM, first compound 0.1 µM
# [33] = second compound 10 µM, first compound 0.316 µM
# [34] = second compound 10 µM, first compound 1 µM
# [35] = second compound 10 µM, first compound 3.16 µM
# [36] = second compound 10 µM, first compound 10 µM
# 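Also: luminescence signal used as a surrogate for viable cells; spheroids exposed to drugs for seven days before readout.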
compound,measurement,setting,value
C=CC(=O)N1CCN(c2nc(=O)n(-c3c(C)ccnc3C(C)C)c3nc(-c4c(O)cccc4F)c(F)cc23)C(C)C1 (stereo unspecified) + Nc1ccc(C#CCN(C(=O)Cc2ncc(C(F)(F)F)cc2C(F)(F)F)c2ccc(F)cc2)nn1,IC50,second compound 0.0316 µM,> 10 µM
same,IC50,second compound 0.1 µM,> 10 µM
same,IC50,second compound 0.316 µM,> 10 µM
same,IC50,second compound 1 µM,> 10 µM
same,IC50,second compound 3.16 µM,> 10 µM
same,IC50,second compound 10 µM,> 10 µM
same,"viability, T/C",[1],106%
same,"viability, T/C",[2],97.1%
same,"viability, T/C",[3],95.4%
same,"viability, T/C",[4],108%
same,"viability, T/C",[5],93.8%
same,"viability, T/C",[6],100%
same,"viability, T/C",[7],103%
same,"viability, T/C",[8],91.1%
same,"viability, T/C",[9],102%
same,"viability, T/C",[10],96.7%
same,"viability, T/C",[11],111%
same,"viability, T/C",[12],107%
same,"viability, T/C",[13],96.6%
same,"viability, T/C",[14],102%
same,"viability, T/C",[15],103%
same,"viability, T/C",[16],101%
same,"viability, T/C",[17],90.9%
same,"viability, T/C",[18],94%
same,"viability, T/C",[19],102%
same,"viability, T/C",[20],111%
same,"viability, T/C",[21],109%
same,"viability, T/C",[22],97.2%
same,"viability, T/C",[23],96.9%
same,"viability, T/C",[24],97.6%
same,"viability, T/C",[25],96.3%
same,"viability, T/C",[26],106%
same,"viability, T/C",[27],103%
same,"viability, T/C",[28],96.8%
same,"viability, T/C",[29],106%
same,"viability, T/C",[30],98.2%
same,"viability, T/C",[31],101%
same,"viability, T/C",[32],106%
same,"viability, T/C",[33],104%
same,"viability, T/C",[34],95.3%
same,"viability, T/C",[35],97.6%
same,"viability, T/C",[36],90.8%
CC(C)n1c(=O)n(C)c2cnc3cc(F)c(-c4ccc(OCCCN5CCCCC5)nc4)cc3c21 + Nc1ccc(C#CCN(C(=O)Cc2ncc(C(F)(F)F)cc2C(F)(F)F)c2ccc(F)cc2)nn1,IC50,second compound 0.0316 µM,> 10 µM
same,IC50,second compound 0.1 µM,> 10 µM
same,IC50,second compound 0.316 µM,> 10 µM
same,IC50,second compound 1 µM,> 10 µM
same,IC50,second compound 3.16 µM,> 10 µM
same,IC50,second compound 10 µM,> 10 µM
same,"viability, T/C",[1],96%
same,"viability, T/C",[2],107%
same,"viability, T/C",[3],92.5%
same,"viability, T/C",[4],98%
same,"viability, T/C",[5],85.5%
same,"viability, T/C",[6],91.3%
same,"viability, T/C",[7],98.2%
same,"viability, T/C",[8],111%
same,"viability, T/C",[9],113%
same,"viability, T/C",[10],105%
same,"viability, T/C",[11],97.2%
same,"viability, T/C",[12],77.4%
same,"viability, T/C",[13],97%
same,"viability, T/C",[14],91.1%
same,"viability, T/C",[15],107%
same,"viability, T/C",[16],89.9%
same,"viability, T/C",[17],107%
same,"viability, T/C",[18],90.2%
same,"viability, T/C",[19],105%
same,"viability, T/C",[20],107%
same,"viability, T/C",[21],92.6%
same,"viability, T/C",[22],89.4%
same,"viability, T/C",[23],105%
same,"viability, T/C",[24],107%
same,"viability, T/C",[25],97.3%
same,"viability, T/C",[26],104%
same,"viability, T/C",[27],104%
same,"viability, T/C",[28],83.3%
same,"viability, T/C",[29],97.8%
same,"viability, T/C",[30],98.7%
same,"viability, T/C",[31],102%
same,"viability, T/C",[32],103%
same,"viability, T/C",[33],97.8%
same,"viability, T/C",[34],101%
same,"viability, T/C",[35],96.2%
same,"viability, T/C",[36],81.5%
CCc1cc2c(N3CCc4c(cc(Cn5ccnc5)cc4-c4cn(C)nc4C(F)(F)F)C3=O)ccnc2c(OC)n1 + Nc1ccc(C#CCN(C(=O)Cc2ncc(C(F)(F)F)cc2C(F)(F)F)c2ccc(F)cc2)nn1,IC50,second compound 0.0316 µM,> 10 µM
same,IC50,second compound 0.1 µM,> 10 µM
same,IC50,second compound 0.316 µM,> 10 µM
same,IC50,second compound 1 µM,> 10 µM
same,IC50,second compound 3.16 µM,> 10 µM
same,IC50,second compound 10 µM,> 10 µM
same,"viability, T/C",[1],89.5%
same,"viability, T/C",[2],110%
same,"viability, T/C",[3],94.7%
same,"viability, T/C",[4],97.2%
same,"viability, T/C",[5],85.9%
same,"viability, T/C",[6],57.8%
same,"viability, T/C",[7],94.6%
same,"viability, T/C",[8],98.2%
same,"viability, T/C",[9],87%
same,"viability, T/C",[10],114%
same,"viability, T/C",[11],82.1%
same,"viability, T/C",[12],63.2%
same,"viability, T/C",[13],92.4%
same,"viability, T/C",[14],93.5%
same,"viability, T/C",[15],83.5%
same,"viability, T/C",[16],94.6%
same,"viability, T/C",[17],68.4%
same,"viability, T/C",[18],61.8%
same,"viability, T/C",[19],103%
same,"viability, T/C",[20],104%
same,"viability, T/C",[21],97.3%
same,"viability, T/C",[22],77%
same,"viability, T/C",[23],77.4%
same,"viability, T/C",[24],86.9%
same,"viability, T/C",[25],97%
same,"viability, T/C",[26],76.5%
same,"viability, T/C",[27],90.5%
same,"viability, T/C",[28],91.2%
same,"viability, T/C",[29],71.6%
same,"viability, T/C",[30],64.1%
same,"viability, T/C",[31],97.4%
same,"viability, T/C",[32],96.2%
same,"viability, T/C",[33],101%
same,"viability, T/C",[34],91%
same,"viability, T/C",[35],79.5%
same,"viability, T/C",[36],75.5%
